Laboratory results: patent US7767659B2, “Synthesis of naturally occurring ecteinascidins and related compounds” (Pharma Mar, S.A., priority 2002, dated 2010)
Like-named read-outs stand apart in the source and are kept apart here.

Assays:
[1] = test system: A-549; test: cells; conditions: Homo sapiens, A549, 48 h
In short: (§1)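 Colorimetric SRB read (490 nm) on triplicate wells after 48 h at 37 °C, 5% CO2. Dose range 10 to 10^−8 μg/ml; 5×10^3 cells/well pre-attached 18 h.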

[2] = test system: LoVo; test: cells; conditions: Homo sapiens, LoVo, 48 h
In short: as §1

[3] = test system: HT-29; test: cells; conditions: Homo sapiens, HT-29, 48 h
In short: as §1

[4] = test system: K-562; test: Inhibition of cells growth by colorimetric assay (SRB); conditions: Homo sapiens, K562, 48 h
In short: as §1

[5] = test system: HeLa; test: as above; conditions: Homo sapiens, HeLa, 48 h
In short: as §1

[6] = test system: IGROV-1; test: as above; conditions: Homo sapiens, IGROV-1, 48 h
In short: as §1

[7] = test system: DU-145; test: as above; conditions: Homo sapiens, DU-145, 48 h
In short: as §1

[8] = test system: IGROV-ET; test: as above; conditions: Homo sapiens, 48 h
In short: as §1

[9] = test system: HeLa-APL; test: as above; conditions: Homo sapiens, 48 h
In short: as §1

[10] = test system: SK-MEL-28; test: as above; conditions: Homo sapiens, SK-MEL-28, 48 h
In short: as §1

[11] = test system: LoVo-Dox; test: as above; conditions: Homo sapiens, 48 h
In short: as §1

[12] = test system: LNCaP; test: as above; conditions: Homo sapiens, LNCaP, 48 h
In short: as §1

[13] = test system: PANC-1; test: as above; conditions: Homo sapiens, PANC-1, 48 h
In short: as §1

[14] = test system: SK-BR-3; test: as above; conditions: Homo sapiens, SK-BR-3, 48 h
In short: as §1

SMILES: CCCCCCCC(=O)Oc1c(C)c2c(c3c1[C@H]1SC[C@]4(NCCc5cc(O)c(OC)cc54)C(=O)OC[C@@H]3N3C1[C@@H]1N[C@@H](Cc4cc(C)c(OC)c(O)c41)[C@@H]3C#N)OCO2 (stereo partly drawn) [compound 52]
- GI50 ([1]; read-out: A549 GI50): 0.00801 µM
- CC50 ([1]; read-out: A549 LC50): 0.973 µM
- IC (TGI) ([1]; read-out: A549 TGI): 0.0578 µM
- GI50 ([2]; read-out: LOVO GI50): 0.00917 µM
- CC50 ([2]; read-out: LOVO LC50): 0.0857 µM
- IC (TGI) ([2]; read-out: LOVO TGI): 0.0296 µM
- GI50 ([3]; read-out: HT29 GI50): 0.00614 µM
- CC50 ([3]; read-out: HT29 LC50): 7.78 µM
- IC (TGI) ([3]; read-out: HT29 TGI): 1.25 µM
- GI50 ([4]; read-out: K562 GI50): 0.00451 µM
- CC50 ([4]; read-out: K562 LC50): 0.0806 µM
- IC (TGI) ([4]; read-out: K562 TGI): 0.0213 µM
- GI50 ([5]; read-out: HELA GI50): 0.00598 µM
- CC50 ([5]; read-out: HELA LC50): 1.85 µM
- IC (TGI) ([5]; read-out: HELA TGI): 0.0225 µM
- GI50 ([6]; read-out: IGROV GI50): 0.00732 µM
- CC50 ([6]; read-out: IGROV LC50): 3.06 µM
- IC (TGI) ([6]; read-out: IGROV TGI): 0.0433 µM
- GI50 ([7]; read-out: DU145 GI50): 0.00492 µM
- CC50 ([7]; read-out: DU145 LC50): 5.14 µM
- IC (TGI) ([7]; read-out: DU145 TGI): 0.0193 µM
- GI50 ([8]; read-out: IGROV-ET GI50): 0.0395 µM
- CC50 ([8]; read-out: IGROV-ET LC50): 8.53 µM
- IC (TGI) ([8]; read-out: IGROV-ET TGI): 0.119 µM
- GI50 ([9]; read-out: HELA-APL GI50): 0.00705 µM
- CC50 ([9]; read-out: HELA-APL LC50): 0.0923 µM
- IC (TGI) ([9]; read-out: HELA-APL TGI): 0.0214 µM
- GI50 ([10]; read-out: MEL-28 GI50): 0.00407 µM
- CC50 ([10]; read-out: MEL-28 LC50): 0.0527 µM
- IC (TGI) ([10]; read-out: MEL-28 TGI): 0.0155 µM
- GI50 ([11]; read-out: LOVO-DOX GI50): 0.273 µM
- CC50 ([11]; read-out: LOVO-DOX LC50): 11.9 µM
- IC (TGI) ([11]; read-out: LOVO-DOX TGI): 11.9 µM
- GI50 ([12]; read-out: LNCAP GI50): 0.00239 µM
- CC50 ([12]; read-out: LNCAP LC50): 0.00906 µM
- IC (TGI) ([12]; read-out: LNCAP TGI): 0.00466 µM
- GI50 ([13]; read-out: PANC-1 GI50): 0.0215 µM
- CC50 ([13]; read-out: PANC-1 LC50): 0.61 µM
- IC (TGI) ([13]; read-out: PANC-1 TGI): 0.0624 µM
- GI50 ([14]; read-out: SK-BR3 GI50): 0.00618 µM
- CC50 ([14]; read-out: SK-BR3 LC50): 11.9 µM
- IC (TGI) ([14]; read-out: SK-BR3 TGI): 0.258 µM

SMILES: COc1c(C)cc2c(c1O)[C@@H]1C3[C@@H]4SC[C@]5(NCCc6c5[nH]c5ccccc65)C(=O)OC[C@@H](c5c6c(c(C)c(OC(C)=O)c54)OCO6)N3[C@@H](C#N)[C@H](C2)N1C (stereo partly drawn) [compound 22]
- GI50 ([1]; read-out: GI50 A549): 0.0267 µM
- CC50 ([1]; read-out: LC50 A549): 0.131 µM
- IC (TGI) ([1]; read-out: TGI A549): 0.059 µM
- GI50 ([2]; read-out: GI50 LOVO): 0.0203 µM
- CC50 ([2]; read-out: LC50 LOVO): 0.0965 µM
- IC (TGI) ([2]; read-out: TGI LOVO): 0.0411 µM
- GI50 ([3]; read-out: GI50 HT29): 0.0297 µM
- CC50 ([3]; read-out: LC50 HT29): 13.1 µM
- IC (TGI) ([3]; read-out: TGI HT29): 0.0825 µM
- GI50 ([4]; read-out: GI50 K562): 0.00592 µM
- CC50 ([4]; read-out: LC50 K562): 0.84 µM
- IC (TGI) ([4]; read-out: TGI K562): 0.0424 µM
- GI50 ([5]; read-out: GI50 HELA): 0.0332 µM
- CC50 ([5]; read-out: LC50 HELA): 0.158 µM
- IC (TGI) ([5]; read-out: TGI HELA): 0.0566 µM
- GI50 ([6]; read-out: GI50 IGROV): 0.0191 µM
- CC50 ([6]; read-out: LC50 IGROV): 0.104 µM
- IC (TGI) ([6]; read-out: TGI IGROV): 0.0446 µM
- GI50 ([7]; read-out: GI50 DU145): 0.0296 µM
- CC50 ([7]; read-out: LC50 DU145): 1.31 µM
- IC (TGI) ([7]; read-out: TGI DU145): 0.0868 µM
- GI50 ([8]; read-out: GI50 IGROV-ET): 0.0522 µM
- CC50 ([8]; read-out: LC50 IGROV-ET): 0.131 µM
- IC (TGI) ([8]; read-out: TGI IGROV-ET): 0.104 µM
- GI50 ([9]; read-out: GI50 HELA-APL): 0.0211 µM
- CC50 ([9]; read-out: LC50 HELA-APL): 0.0935 µM
- IC (TGI) ([9]; read-out: TGI HELA-APL): 0.0444 µM
- GI50 ([10]; read-out: GI50 MEL-28): 0.0302 µM
- CC50 ([10]; read-out: LC50 MEL-28): 0.102 µM
- IC (TGI) ([10]; read-out: TGI MEL-28): 0.0555 µM
- GI50 ([11]; read-out: GI50 LOVO-DOX): 0.0874 µM
- CC50 ([11]; read-out: LC50 LOVO-DOX): 13.1 µM
- IC (TGI) ([11]; read-out: TGI LOVO-DOX): 0.524 µM
- GI50 ([12]; read-out: GI50 LNCAP): 0.00615 µM
- CC50 ([12]; read-out: LC50 LNCAP): 0.055 µM
- IC (TGI) ([12]; read-out: TGI LNCAP): 0.0211 µM
- GI50 ([13]; read-out: GI50 PANC-1): 0.0296 µM
- CC50 ([13]; read-out: LC50 PANC-1): 0.854 µM
- IC (TGI) ([13]; read-out: TGI PANC-1): 0.0738 µM
- GI50 ([14]; read-out: GI50 SK-BR3): 0.00577 µM
- CC50 ([14]; read-out: LC50 SK-BR3): 0.12 µM
- IC (TGI) ([14]; read-out: TGI SK-BR3): 0.0223 µM
